From ChEMBL document CHEMBL1201862, “PubChem BioAssay data set” (2004) come the findings set out here.

The nature of experiment [1]: viability loss in HepG2 hepatoma cells – cell-based, ATP luminescence, dry powder, set 2, cytotoxicity control, dose response (AID 743129). The experiment is classed as functional.
The nature of experiment [2]: viability loss in HEK293T cells – cell-based, ATP luminescence, dry powder, set 3, cytotoxicity control, dose response (AID 743131). As to conditions: HEK293. The experiment is classed as functional.
Experiment [3] deals with Vero. As to the kind of experiment: inhibition of WNV-induced cytopathic effect – cell-based, CPE readout (AID 1621). The experiment is classed as functional. Conditions: Chlorocebus sabaeus. For orientation: Protection from cytopathic effect is a common read-out in antiviral testing.
Experiment [4] in a line: cytotoxicity toward HT-29 cells – cell-based, CellTiter-Glo luminescence, IC50, dose response (AID 1117330). The experiment is classed as functional. For orientation: ATP-based viability assays read luminescence as a measure of living cells.
The nature of experiment [5]: RKO cell viability reduction, dose response, CellTiter-Glo luminescence (AID 1117322). The experiment is classed as functional.
Experiment [6] is described as follows: SNU-C1 cell viability reduction, dose response, CellTiter-Glo luminescence (AID 1117323). The experiment is classed as functional, cell-based.
The nature of experiment [7]: HCT116 cell viability decrease, GSK3B pretreatment – CellTiter-Glo, IC50, dose response (AID 1117339). Conditions: HCT-116. The experiment is classed as functional.
A short description of experiment [8]: cytotoxicity toward Colo320 cells – cell-based, CellTiter-Glo luminescence, IC50, dose response (AID 1117334). The experiment is classed as functional. As to conditions: COLO 320.
The nature of experiment [9]: Reduced DLD-1 viability, concentration-response, CellTiter-Glo luminescence (AID 1117352). The experiment is classed as functional.
A short description of experiment [10]: CellTiter-Glo luminescence survival assay, SW480 colon tumor line, concentration-response curve, half-maximal inhibitory concentration (AID 1117338). The experiment is classed as functional.
Experiment [11] can be described thus: cells. As to conditions: HEK293.
Experiment [12] is described as follows: toxicity to A549 lung cells – cell-based, plate reader, dry powder, set 6, cytotoxicity control, dose response (AID 743312). The experiment is classed as functional.
Experiment [13] in a line: toxicity to HepG2 liver cells – cell-based, plate reader, dry powder, set 6, cytotoxicity control, dose response (AID 743311). The experiment is classed as functional.
The nature of experiment [14]: M. tuberculosis growth inhibition, HTS (AID 449762). The experiment is classed as functional.
Experiment [15] has as its target Photoreceptor-specific nuclear receptor (Homo sapiens, UniProt Q9Y5X4). As to the kind of experiment: ligands suppressing NR2E3 nuclear receptor activity – biochemical, TR-FRET, dose response (AID 463256). The experiment is classed as functional. On the technique in general: TR-FRET usually uses a lanthanide donor and a delayed reading to cut background.
In experiment [16] the target is Peroxisome proliferator-activated receptor gamma/Nuclear receptor corepressor 2 (Homo sapiens, UniProt P37231+Q9Y618). The experiment in a line: Counterscreen for NR2E3 inverse agonists: TR-FRET-based biochemical high throughput dose response assay to identify inverse agonists of the interaction between peroxisome proliferator-activated receptor gamma (PPARg) and nuclear receptor co-repressor 2 (NCOR2). The experiment is classed as functional.
Peroxisome proliferator-activated receptor gamma/Nuclear receptor corepressor 2, sequence (P37231 whole entry): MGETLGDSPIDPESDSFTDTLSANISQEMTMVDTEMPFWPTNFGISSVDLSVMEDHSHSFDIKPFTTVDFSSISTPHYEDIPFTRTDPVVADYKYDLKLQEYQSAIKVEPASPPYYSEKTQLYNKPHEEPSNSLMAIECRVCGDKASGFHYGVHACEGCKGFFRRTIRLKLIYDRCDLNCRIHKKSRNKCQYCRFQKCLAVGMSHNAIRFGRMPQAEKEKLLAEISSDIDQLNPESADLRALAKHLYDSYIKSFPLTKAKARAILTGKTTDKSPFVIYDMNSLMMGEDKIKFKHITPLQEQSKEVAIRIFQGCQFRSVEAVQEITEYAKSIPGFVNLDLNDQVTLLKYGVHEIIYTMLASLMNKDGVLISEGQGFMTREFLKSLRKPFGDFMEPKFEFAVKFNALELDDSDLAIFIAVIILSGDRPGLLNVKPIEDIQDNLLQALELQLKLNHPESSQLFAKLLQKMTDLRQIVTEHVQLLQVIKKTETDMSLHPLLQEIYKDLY
Peroxisome proliferator-activated receptor gamma/Nuclear receptor corepressor 2, sequence (Q9Y618 whole entry): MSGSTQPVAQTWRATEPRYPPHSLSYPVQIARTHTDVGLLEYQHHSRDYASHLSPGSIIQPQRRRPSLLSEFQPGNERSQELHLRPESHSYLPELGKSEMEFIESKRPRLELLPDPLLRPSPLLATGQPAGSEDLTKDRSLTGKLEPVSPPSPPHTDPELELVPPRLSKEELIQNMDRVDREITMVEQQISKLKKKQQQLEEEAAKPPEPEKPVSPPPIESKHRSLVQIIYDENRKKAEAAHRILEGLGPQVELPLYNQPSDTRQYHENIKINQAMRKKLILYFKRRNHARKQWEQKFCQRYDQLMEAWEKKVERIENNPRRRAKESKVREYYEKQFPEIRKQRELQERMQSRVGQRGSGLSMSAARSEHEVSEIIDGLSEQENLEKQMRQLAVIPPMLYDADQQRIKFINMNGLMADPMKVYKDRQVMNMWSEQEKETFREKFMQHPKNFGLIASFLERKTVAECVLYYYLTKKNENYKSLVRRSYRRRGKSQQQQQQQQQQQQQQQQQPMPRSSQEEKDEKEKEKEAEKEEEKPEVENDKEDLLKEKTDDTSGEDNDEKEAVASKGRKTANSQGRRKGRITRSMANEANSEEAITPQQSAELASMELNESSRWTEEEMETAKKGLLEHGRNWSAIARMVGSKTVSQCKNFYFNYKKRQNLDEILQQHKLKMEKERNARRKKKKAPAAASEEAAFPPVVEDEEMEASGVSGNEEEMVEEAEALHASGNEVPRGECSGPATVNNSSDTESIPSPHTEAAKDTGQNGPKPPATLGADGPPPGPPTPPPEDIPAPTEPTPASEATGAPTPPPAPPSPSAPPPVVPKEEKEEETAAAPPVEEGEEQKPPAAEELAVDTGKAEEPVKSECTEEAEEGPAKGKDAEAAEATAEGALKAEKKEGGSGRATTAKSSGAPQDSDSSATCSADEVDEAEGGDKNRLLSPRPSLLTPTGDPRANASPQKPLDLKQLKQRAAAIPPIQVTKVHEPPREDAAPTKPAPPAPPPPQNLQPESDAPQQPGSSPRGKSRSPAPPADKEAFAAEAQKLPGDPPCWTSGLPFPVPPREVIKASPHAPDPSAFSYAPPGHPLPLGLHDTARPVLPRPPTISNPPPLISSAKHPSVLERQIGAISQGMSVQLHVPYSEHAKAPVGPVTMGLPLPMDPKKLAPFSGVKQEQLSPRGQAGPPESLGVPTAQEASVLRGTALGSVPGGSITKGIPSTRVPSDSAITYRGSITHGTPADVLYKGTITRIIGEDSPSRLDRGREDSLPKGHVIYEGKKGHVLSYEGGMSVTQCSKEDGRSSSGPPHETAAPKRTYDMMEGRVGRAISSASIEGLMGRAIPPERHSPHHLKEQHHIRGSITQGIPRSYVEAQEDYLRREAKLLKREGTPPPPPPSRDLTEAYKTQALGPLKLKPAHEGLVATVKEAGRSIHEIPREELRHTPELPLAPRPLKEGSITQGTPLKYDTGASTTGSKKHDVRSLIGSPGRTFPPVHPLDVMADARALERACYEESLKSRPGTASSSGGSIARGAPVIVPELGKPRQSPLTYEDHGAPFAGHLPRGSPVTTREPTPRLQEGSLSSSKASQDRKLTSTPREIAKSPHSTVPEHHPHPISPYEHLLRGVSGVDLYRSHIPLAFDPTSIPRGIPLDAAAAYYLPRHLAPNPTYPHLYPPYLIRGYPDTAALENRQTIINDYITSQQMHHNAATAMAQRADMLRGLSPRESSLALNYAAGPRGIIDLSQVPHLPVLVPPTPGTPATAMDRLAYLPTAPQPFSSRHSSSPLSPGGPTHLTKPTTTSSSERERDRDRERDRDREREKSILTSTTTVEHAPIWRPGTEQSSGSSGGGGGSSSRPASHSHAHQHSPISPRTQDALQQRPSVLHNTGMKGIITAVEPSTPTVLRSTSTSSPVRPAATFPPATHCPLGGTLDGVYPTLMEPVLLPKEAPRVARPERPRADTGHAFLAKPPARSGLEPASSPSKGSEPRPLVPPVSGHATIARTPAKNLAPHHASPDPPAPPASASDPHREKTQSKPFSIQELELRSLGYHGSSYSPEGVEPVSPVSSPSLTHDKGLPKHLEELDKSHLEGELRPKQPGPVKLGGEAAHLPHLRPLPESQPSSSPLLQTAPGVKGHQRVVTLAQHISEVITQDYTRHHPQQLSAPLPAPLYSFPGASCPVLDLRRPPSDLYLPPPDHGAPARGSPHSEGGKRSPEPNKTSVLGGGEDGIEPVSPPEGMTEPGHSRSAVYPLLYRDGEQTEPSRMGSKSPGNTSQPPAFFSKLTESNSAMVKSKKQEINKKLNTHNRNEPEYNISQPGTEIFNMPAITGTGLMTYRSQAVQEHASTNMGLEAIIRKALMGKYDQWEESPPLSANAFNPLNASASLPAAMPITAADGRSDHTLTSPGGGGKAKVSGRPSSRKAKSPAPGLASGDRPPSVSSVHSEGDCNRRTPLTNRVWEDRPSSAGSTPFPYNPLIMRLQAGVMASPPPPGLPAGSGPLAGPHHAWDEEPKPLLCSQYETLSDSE

Where a name gives a salt, the structure may show the parent alone. The source made the active and inactive calls. Some results are limits rather than exact numbers.

Photoreceptor-specific nuclear receptor, sequence (Q9Y5X4 whole entry): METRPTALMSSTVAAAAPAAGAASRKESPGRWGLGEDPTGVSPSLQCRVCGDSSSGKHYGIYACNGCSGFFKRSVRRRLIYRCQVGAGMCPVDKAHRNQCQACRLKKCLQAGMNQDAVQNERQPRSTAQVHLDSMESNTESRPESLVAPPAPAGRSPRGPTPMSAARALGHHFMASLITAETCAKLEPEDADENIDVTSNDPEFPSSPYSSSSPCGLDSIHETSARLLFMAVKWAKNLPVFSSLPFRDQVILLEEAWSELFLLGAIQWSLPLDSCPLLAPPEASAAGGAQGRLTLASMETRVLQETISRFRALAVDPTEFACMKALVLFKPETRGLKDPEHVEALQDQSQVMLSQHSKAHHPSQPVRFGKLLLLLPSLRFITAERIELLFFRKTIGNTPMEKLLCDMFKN

A word on the AC50: it is the concentration giving half of the maximal activity seen. On to `CCOC(=O)c1c(NC(=O)CN2CCN(C)CC2)sc(C)c1-c1ccc(C)cc1`, for which the concentration at half-maximal activity (AC50) was 16.7 µM (active) in [1] and 1.74 µM (active) in [2].
The IC50 is the point on the concentration scale where inhibition reaches its midpoint. As to `Cc1cc(C)cc(SCc2noc(C(=O)NCCN(C)C)c2C(=O)NCCN(C)C)c1`, the IC50 in experiment [3] is 26.9 µM (active).
As for `CCc1cccc(N(C)C(=N)Nc2cccc3ccccc23)c1` [APTIGANEL HYDROCHLORIDE], the IC50 in [4], in experiment [5], in experiment [6], in [7], in [8] and in experiment [9] was > 20 µM (inactive) in each case. For the same compound, in experiment [10], the IC50 is > 20 µM (inactive).
In the case of `NCC(=O)Nc1ccc(-n2nc(C(F)(F)F)cc2-c2ccc3c(ccc4ccccc43)c2)cc1` [AR-12], the AC50 was 4.39 µM (active) in [11], 18.3 µM (active) in experiment [12] and 8.29 µM (active) in [13].
In the case of `CC(=O)CCSc1ncnc2sc(-c3ccccc3)cc12`, the IC50 in experiment [14] is > 100 µM (active).
As for `CCN(CC)S(=O)(=O)c1ccc(OC)c(NC(=O)COc2ccc3c(C)cc(=O)oc3c2)c1`, the IC50 in [15] was 2.35 µM (active); in experiment [16], 2.14 µM (active).
